In US12559464B2, “Quinazolinone dione compounds and uses thereof” (Edgewise Therapeutics, Inc., priority 2023, dated 2026):

Assays:
[1] = test system: myosin ATPase, Rabbit Psoas myofibrils; test: Myofibril ATPase assay, rabbit psoas (skeletal) myofibrils; assay type: biochemical; details: Rabbit Psoas Prep pCa 25 GEOM_MEAN; for Rabbit Psoas EC25 (Y75 value): concentration required to reduce myosin ATP-ase activity by 25%
[2] = biological target: T1, myosin ATPase, Porcine Ventricle myofibrils (Sus scrofa, UniProt P79293); test: Myofibril ATPase assay, porcine ventricle myofibrils; assay type: biochemical, porcine (Yucatan minipigs); details: concentration required to reduce myosin ATP-ase activity by 25%; Porcine Ventricle Prep pCa 25 GEOM_MEAN
T1 construct: Myofibrils from porcine cardiac muscle was isolated from the left ventricle of Yucatan minipigs; tissue Exemplar Genetics; host or cells: left ventricle of Yucatan minipigs, myofibrils
T1 sequence (P79293 whole entry): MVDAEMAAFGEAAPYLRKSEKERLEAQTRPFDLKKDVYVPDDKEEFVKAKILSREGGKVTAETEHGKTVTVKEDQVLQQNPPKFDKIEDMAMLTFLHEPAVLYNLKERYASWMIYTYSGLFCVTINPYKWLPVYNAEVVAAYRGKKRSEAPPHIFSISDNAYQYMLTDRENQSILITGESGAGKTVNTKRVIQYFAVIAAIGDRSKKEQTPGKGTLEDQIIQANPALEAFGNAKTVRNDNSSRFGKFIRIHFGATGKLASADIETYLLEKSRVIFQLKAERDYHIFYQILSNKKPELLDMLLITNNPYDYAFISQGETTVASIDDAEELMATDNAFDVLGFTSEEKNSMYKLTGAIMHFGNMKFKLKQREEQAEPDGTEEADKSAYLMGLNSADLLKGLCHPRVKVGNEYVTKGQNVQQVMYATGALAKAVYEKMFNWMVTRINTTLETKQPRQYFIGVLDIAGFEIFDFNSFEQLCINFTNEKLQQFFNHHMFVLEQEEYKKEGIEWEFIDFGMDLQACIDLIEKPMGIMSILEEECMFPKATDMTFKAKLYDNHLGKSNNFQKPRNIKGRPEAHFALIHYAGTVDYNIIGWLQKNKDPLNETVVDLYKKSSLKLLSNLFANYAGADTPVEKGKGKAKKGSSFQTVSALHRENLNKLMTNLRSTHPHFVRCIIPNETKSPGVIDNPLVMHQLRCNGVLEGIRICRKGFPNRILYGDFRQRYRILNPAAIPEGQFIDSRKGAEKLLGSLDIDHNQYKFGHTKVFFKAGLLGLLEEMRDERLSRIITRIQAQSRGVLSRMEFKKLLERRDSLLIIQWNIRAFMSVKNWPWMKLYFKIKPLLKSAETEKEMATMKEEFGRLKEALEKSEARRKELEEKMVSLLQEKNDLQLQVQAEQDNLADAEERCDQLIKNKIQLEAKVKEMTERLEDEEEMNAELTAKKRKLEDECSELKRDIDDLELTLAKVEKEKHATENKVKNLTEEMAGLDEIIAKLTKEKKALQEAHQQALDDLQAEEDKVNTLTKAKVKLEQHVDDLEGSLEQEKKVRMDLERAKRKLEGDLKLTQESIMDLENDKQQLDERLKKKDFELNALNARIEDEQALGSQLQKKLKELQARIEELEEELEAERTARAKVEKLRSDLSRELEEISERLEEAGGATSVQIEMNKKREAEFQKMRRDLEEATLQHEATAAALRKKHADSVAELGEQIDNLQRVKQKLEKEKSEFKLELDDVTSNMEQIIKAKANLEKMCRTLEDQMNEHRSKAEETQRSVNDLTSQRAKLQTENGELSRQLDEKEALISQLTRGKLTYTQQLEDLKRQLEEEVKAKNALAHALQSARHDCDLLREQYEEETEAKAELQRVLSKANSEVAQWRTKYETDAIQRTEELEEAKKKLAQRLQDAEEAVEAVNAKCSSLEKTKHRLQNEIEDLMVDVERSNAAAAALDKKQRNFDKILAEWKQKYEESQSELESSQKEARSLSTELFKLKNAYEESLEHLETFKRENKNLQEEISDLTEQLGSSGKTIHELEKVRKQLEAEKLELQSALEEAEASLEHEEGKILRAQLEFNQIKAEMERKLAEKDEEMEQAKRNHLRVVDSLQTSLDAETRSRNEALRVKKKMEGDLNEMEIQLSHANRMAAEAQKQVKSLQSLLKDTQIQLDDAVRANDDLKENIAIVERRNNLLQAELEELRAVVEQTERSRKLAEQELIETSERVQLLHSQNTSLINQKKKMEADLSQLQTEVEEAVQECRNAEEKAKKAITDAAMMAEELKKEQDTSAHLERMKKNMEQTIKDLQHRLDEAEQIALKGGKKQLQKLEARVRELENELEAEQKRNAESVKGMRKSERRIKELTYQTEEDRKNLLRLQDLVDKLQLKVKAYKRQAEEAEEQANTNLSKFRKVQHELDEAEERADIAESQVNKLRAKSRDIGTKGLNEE
How it was run: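 Myofibrils from Yucatan minipig left ventricle; ADP production coupled via PK-LDH to NADH loss, read kinetically at 340 nm every 1.5–2 min for 75 min in PIPES/MgCl2 pH 7.0 buffer. Slopes normalized to vehicle and fit to 4-parameter logistic; values are concentrations giving 75% (inhibition) or 125% (activation) of vehicle activity.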

[3] = test system: myosin ATPase, Porcine Atria myofibrils; test: Myofibril ATPase assay, porcine atria myofibrils; assay type: biochemical; details: concentration required to reduce myosin ATP-ase activity by 25%; Porcine Atria Prep pCa 25 GEOM_MEAN

| Compound | Rabbit Psoas EC25 (Y75 value) [1] [µM] | Porcine Ventricle EC25 (Y75 value) [2] [µM] | Porcine Atria EC25 (Y75 value) [3] [µM] | Rabbit Psoas Y125 value (marked #) ([1]; concentration required to increase myosin ATP-ase activity by 25%) |
| --- | --- | --- | --- | --- |
| C[C@H](NC(=O)Cn1c(=O)[nH]c2ncncc2c1=O)c1ccc(F)cc1F [Compound 95, (S)-N-(1-(2,4-difluorophenyl)ethyl)-2-(2,4-dioxo-1,4-dihydropyrimido[4,5-d]pyrimidin-3(2H)-yl)acetamide] | 100 | 100 | 100 |  |
| C[C@H](NC(=O)Cn1c(=O)[nH]c2cncnc2c1=O)c1ccc(F)cc1F [Compound 96, (S)-N-(1-(2,4-difluorophenyl)ethyl)-2-(2,4-dioxo-1,4-dihydropyrimido[5,4-d]pyrimidin-3(2H)-yl)acetamide] | 100 | 100 | 100 |  |
| CC(NC(=O)Cn1c(=O)[nH]c2ccccc2c1=O)c1ccc(F)cn1 (stereo not drawn) [Compound 106, 2-(2,4-dioxo-1,4-dihydroquinazolin-3(2H)-yl)-N-(1-(5-fluoropyridin-2-yl)ethyl)acetamide] | 72.241 | 100 | 100 |  |
| COc1ccc2c(=O)n(CC(=O)N[C@@H](C)c3ccc(F)cc3F)c(=O)[nH]c2c1 [Compound 142, (S)-N-(1-(2,4-difluorophenyl)ethyl)-2-(7-methoxy-2,4-dioxo-1,4-dihydroquinazolin-3(2H)-yl)acetamide] | 100 | 100 | 100 |  |
| C[C@H](NC(=O)Cn1c(=O)[nH]c2cc(F)ccc2c1=O)c1ccc(F)cc1F [Compound 143, (S)-N-(1-(2,4-difluorophenyl)ethyl)-2-(7-fluoro-2,4-dioxo-1,4-dihydroquinazolin-3(2H)-yl)acetamide] | 9.2 | 100 | 2.081 |  |
| C[C@H](NC(=O)Cn1c(=O)[nH]c2cccc(F)c2c1=O)c1ccc(F)cc1F [Compound 154, (S)-N-(1-(2,4-difluorophenyl)ethyl)-2-(5-fluoro-2,4-dioxo-1,4-dihydroquinazolin-3(2H)-yl)acetamide] | 0.11 | 1.15 | 0.1312 |  |
| C[C@H](NC(=O)Cn1c(=O)[nH]c2ccc(F)cc2c1=O)c1ccc(F)cc1F [Compound 155, (S)-N-(1-(2,4-difluorophenyl)ethyl)-2-(6-fluoro-2,4-dioxo-1,4-dihydroquinazolin-3(2H)-yl)acetamide] | 0.073 | 0.1805 | 0.0623 |  |
| C[C@@H](NC(=O)Cn1c(=O)[nH]c2ccccc2c1=O)c1ccc(F)cc1F [Compound 166, (R)-N-(1-(2,4-difluorophenyl)ethyl)-2-(2,4-dioxo-1,4-dihydroquinazolin-3(2H)-yl)acetamide] | 100 | 100 | 100 |  |
| CC(NC(=O)Cn1c(=O)[nH]c2ccccc2c1=O)c1ccc(F)cc1F (stereo not drawn) [Compound 169, N-(1-(2,4-difluorophenyl)ethyl)-2-(2,4-dioxo-1,4-dihydroquinazolin-3(2H)-yl)acetamide] | 0.494 | 31.6 | 2.407 |  |
| CC(NC(=O)Cn1c(=O)[nH]c2ccccc2c1=O)c1ccncc1 (stereo not drawn) [Compound 213, 2-(2,4-dioxo-1,4-dihydroquinazolin-3(2H)-yl)-N-(1-(pyridin-4-yl)ethyl)acetamide] | 100 | 100 | 100 |  |
| CC(NC(=O)Cn1c(=O)[nH]c2ccccc2c1=O)c1cncnc1 (stereo not drawn) [Compound 214, 2-(2,4-dioxo-1,4-dihydroquinazolin-3(2H)-yl)-N-(1-(pyrimidin-5-yl)ethyl)acetamide] | 100 | 100 | 100 |  |
| CC(NC(=O)Cn1c(=O)[nH]c2ccccc2c1=O)c1cnccn1 (stereo not drawn) [Compound 215, 2-(2,4-dioxo-1,4-dihydroquinazolin-3(2H)-yl)-N-(1-(pyrazin-2-yl)ethyl)acetamide] | 100 | 45.3 | 23.9 |  |
| C[C@H](NC(=O)Cn1c(=O)[nH]c2cnccc2c1=O)c1ccc(F)cc1F [Compound 301, (S)-N-(1-(2,4-difluorophenyl)ethyl)-2-(2,4-dioxo-1,4-dihydropyrido[3,4-d]pyrimidin-3(2H)-yl)acetamide] | 5.422 | 100 | 79 |  |
| C[C@H](NC(=O)Cn1c(=O)[nH]c2ncccc2c1=O)c1ccc(F)cc1F [Compound 302, (S)-N-(1-(2,4-difluorophenyl)ethyl)-2-(2,4-dioxo-1,4-dihydropyrido[2,3-d]pyrimidin-3(2H)-yl)acetamide] | 100 | 100 | 100 |  |
| C[C@H](NC(=O)Cn1c(=O)[nH]c2cccnc2c1=O)c1ccc(F)cc1F [Compound 303, (S)-N-(1-(2,4-difluorophenyl)ethyl)-2-(2,4-dioxo-1,4-dihydropyrido[3,2-d]pyrimidin-3(2H)-yl)acetamide] | 23 | 100 | 100 |  |
| CC(C)[C@H](N)C(=O)OCn1c(=O)n(CC(=O)N[C@@H](C)c2ccc(F)cc2F)c(=O)c2cc(F)ccc21 [Compound 401, (3-(2-(((S)-1-(2,4-difluorophenyl)ethyl)amino)-2-oxoethyl)-6-fluoro-2,4-dioxo-3,4-dihydroquinazolin-1(2H)-yl)methyl L-valinate] | 6.978 | 100 | 46.5 |  |
| COCn1c(=O)n(CC(=O)N[C@@H](C)c2ccc(F)cc2F)c(=O)c2cc(F)ccc21 [Compound 402, (S)-N-(1-(2,4-difluorophenyl)ethyl)-2-(6-fluoro-1-(methoxymethyl)-2,4-dioxo-1,4-dihydroquinazolin-3(2H)-yl)acetamide] | 100 | 100 | 100 |  |
| C[C@H](NC(=O)Cn1c(=O)c2cc(F)ccc2n(C)c1=O)c1ccc(F)cc1F [Compound 404, (S)-N-(1-(2,4-difluorophenyl)ethyl)-2-(6-fluoro-1-methyl-2,4-dioxo-1,4-dihydroquinazolin-3(2H)-yl)acetamide] |  | 100 | 12.2 | 100^# ^ μM |
| C[C@H](NC(=O)Cn1c(=O)[nH]c2cc(C(F)(F)F)ccc2c1=O)c1ccc(F)cc1F [Compound 405, (S)-N-(1-(2,4-difluorophenyl)ethyl)-2-(2,4-dioxo-7-(trifluoromethyl)-1,4-dihydroquinazolin-3(2H)-yl)acetamide] | 100 | 100 | 100 |  |
